Test results published in ChEMBL document CHEMBL1122594, “Parasite enzymes as potential targets for antiparasitic chemotherapy” (J Med Chem, 1984).
The source made the active and inactive calls. The calls are words filed in the database; no cut-off is given here.

Columns and labels:
[1] = (§1) Enzymatic activity was determined
[2] = as §1; remark: listed apart in the source
[3] = Anticoccidial activity against toxoplasmosis in cattle; no activity; type: functional
[4] = species on record: Gallus gallus; assay: Anticoccidial activity against toxoplasmosis in chicken; no activity; type: functional, organism-based

| Structure (SMILES) | Ki [1] | other results |
| --- | --- | --- |
| Nc1ccc(C(=O)O)cc1 | – | Km [2]: 1.5 µM |
| CCCc1ncc(C[n+]2ccccc2C)c(N)n1 | – | Activity [3]: inactive; Activity [4]: inactive |
| N=C(N)NS(=O)(=O)c1ccc(N)cc1 [SULFAGUANIDINE] | 69 µM | – |

The next lines start with results.

| Ki [1] | Structure (SMILES) | other results |
| --- | --- | --- |
| 130 µM | Nc1ccc(S(N)(=O)=O)cc1 [SULFANILAMIDE] | – |
| 14 µM | Nc1ccc(S(=O)(=O)Nc2nccs2)cc1 [SULFATHIAZOLE] | – |
